Patent US20110028360A1, “ORGANIC CORROSION INHIBITOR PACKAGE FOR ORGANIC ACIDS” (M-I DRILLING FLUIDS U.K. LIMITED, priority 2008, published 2011)

Key:
[1] = Biodegradation according to OECD 301B
Procedure: (§1) Propoxylated prop-2-yn-1-ol, as a raw material for the corrosion inhibitor compositions disclosed herein, was tested for ecotoxicology. Biodegradation was measured according to OECD 301B. EC50 Toxicity was measured according to ISO/DP 10253. Bioaccumulation log Pow was measured according to OECD 117.

[2] = EC50 Toxicity according to ISO/DP 10253
Procedure: as §1

[3] = Bioaccumulation log Pow according to OECD 117; type: physicochemical
Procedure: as §1

Biodegradation [1]: 100% (OECD 301B)
Bioaccumulation Log Pow [3]: 2
Substance: propoxylated prop-2-yn-1-ol
Toxicity [2]: 100 mg/L
